# Measured values: a melting point compilation (Tetko et al.; mined from patent text by program, amines drawn as free bases though some values may be those of a salt)
row,melting point [°C],Compound
1,137,CC(C1CC1)C(O)(Cn1nc[nH]c1=S)c1ccc(Cl)cc1 (configuration not stated)
2,83 to 85,Clc1ccc2c(c1)oc1cc(OCCCBr)ccc12
3,209 to 210,Nc1nc(=O)n(C2OC(CO)CC2F)cc1F (configuration not stated)
4,141 to 143,COc1ccc(NC2(C(N)=O)CCOCC2)cc1
5,147 to 149,NC(=O)c1ccc(C(F)(F)F)c(N)c1
6,180 to 183,CCOC(=O)c1cn([C@@H](C)COS(C)(=O)=O)c2c(F)c(-c3cc(C)nc(C)c3)c(F)cc2c1=O
7,170 to 175,Nc1cc(Oc2ccncc2)ccc1[N+](=O)[O-]
8,284 to 289,Nc1ncc2cc(-c3c(Br)cccc3Br)c(N)nc2n1
9,147 to 148,NCC(=O)N(N)c1ccc2ccccc2c1
10,138,CCOC1CCC2(CC1)NC(=O)C(c1cc(Br)ccc1C)=C2O (configuration not stated)
11,100,CN(C)CCOCC(O)c1ccc2cc(OCc3ccccc3)ccc2c1 (configuration not stated)
12,118 to 119,CC(C)n1nc(CO)cc1OCc1ccc2ccccc2n1
13,294,Cn1cc(-c2cc(-c3cnc4[nH]ncc4c3)ccn2)n(-c2ccc(C(C)(C)C#N)cc2)c1=O
14,224 to 226,O=C(CCC(=O)N1CCC(N2Cc3ccccc3NC2=O)CC1)c1ccc(Cl)c(Cl)c1
15,103 to 105,COC(=O)C(=O)Oc1cc(-n2c(=O)cc(C(F)(F)F)n(C)c2=O)c(F)cc1Cl
16,122 to 124,CCOC(=O)c1ccc(NC(=O)C=C(c2ccccc2)c2ccc(C)cc2)cc1
17,260 to 262,FC(F)(F)Oc1ccc(Nc2nc(-c3ccccc3)cc(N3CCOCC3)n2)cc1
18,40 to 42,Cc1cc(C2=CC(C)(C)CC(C)(C)C2CO)ccc1F (configuration not stated)
19,228,CC12CCC3c4ccc(C(=O)O)cc4CCC3C1CCC2C(=O)c1cccc2ccccc12 (configuration not stated)
20,130 to 132,CC(CN(C)C)Oc1ccc(-c2n[nH]c3ncccc23)cc1 (configuration not stated)
21,130 to 131,Cn1cc(Oc2ccccc2)c(=O)c(-c2ccc(Cl)c(C(F)(F)F)c2)c1
22,274 to 275,O=c1oc2c3c(n(-c4ccccc4)c(=O)c2c(O)c1Sc1ccccc1)-c1ccccc1C3
23,110,CCCOc1ccc(C(CC(N)=O)N2C(=O)c3ccccc3C2=O)cc1 (configuration not stated)

row,melting point [°C],Compound
1,171 to 172,CC(C)C(=O)c1cnc(C(CC2CCCC2)c2ccc(S(C)(=O)=O)cc2)[nH]1 (configuration not stated)
2,> 250,CCc1nc2c(N)nc3cc(-c4cncc(CO)c4)ccc3c2n1CC(C)(C)O
3,185 to 188,CNC(=S)NS(=O)(=O)c1cc(CCNC(=O)c2cc(Cl)ccc2OC)ccc1-c1ccc(OC)cc1
4,46 to 49,COc1cc(CO)cc(F)n1
5,141 to 142,CN1CCC(Cc2ccc(Cl)nc2)C1=C[N+](=O)[O-] (configuration not stated)
6,168 to 169,COC(=O)c1ccccc1-n1c(CCl)nc2c(C)cccc2c1=O
7,224,Cc1c(-c2c(C)c3ccccc3n2S(=O)(=O)c2ccccc2)n(S(=O)(=O)c2ccccc2)c2ccccc12
8,165 to 166,Cc1oc(-c2ccc(C(F)(F)F)cc2)nc1-c1ccc(-c2cc(Br)c(OCC(=O)O)c(Br)c2)cc1
9,212 to 213,CCOCCOc1ccc(-c2ccc3c(c2)C=C(C(=O)Nc2ccc(CN(C)C4CCOCC4)cc2)CCS3(=O)=O)cc1C
10,164 to 165,CCNc1nc(OC)c(C(=O)NCC2CCCN2C2CCCCC2)nc1Cl (configuration not stated)
11,86 to 91,CCN(CC)CCCNc1ncc2cc(-c3c(C)cccc3C)c(NC(=O)NC(C)(C)C)nc2n1
12,64 to 68,CCCCc1c(C(=O)N(C)Cc2ccc3c(Br)c(OCC(Cc4ccccc4)C(=O)O)ccc3c2)oc2ccccc12 (configuration not stated)
13,235 to 236,COc1ccc(CCNC(=O)C(=O)NCc2ccc(NC(C)=O)cc2)cc1OC1CCCC1
14,98 to 100,CNC(=O)/C(=N/OC)c1ccccc1Oc1ccc(C)c(C)c1
15,133 to 134,CC(C)Cn1c(C(=O)OC(C)(C)C)c(O)c2cc(OCc3ccccc3)ccc2c1=O
16,117 to 118,CC(C)(SCc1ccccc1)[C@@H]1C[C@H](CSCc2ccccc2)C(=O)N1CC(=O)O (relative stereo)
17,80,O=P(O)(O)C1(P(=O)(O)O)CCN2C=CC=CC2=N1
18,162 to 165,COc1ccccc1Oc1ccc([N+](=O)[O-])cc1C(=O)O
19,145 to 146,CCOC(=O)c1c(C)nn2c(-c3cccnc3)ccnc12
20,231 to 232,CCOC(=O)c1ncc2[nH]c3ccc(Br)cc3c2c1C
21,158,CC1(C)Cc2c(c(N3CCCCC3)nc3sc4c(NCCN5CCOCC5)ncnc4c23)CO1
22,93 to 94,COc1ccc(C(=O)c2ccc(Cl)nc2)c(OCc2ccccc2)c1
23,169,OCCn1cnc2c(NCCN3CCC(Nc4nc5ccccc5n4Cc4ccc(F)cc4)CC3)ncnc21

row,melting point [°C],Compound
1,190,O=C(NC(=O)c1ccccc1Cl)Nc1ccc(C=C(Br)Br)cc1
2,104 to 106,CCOC(=O)NCc1ccc2[nH]cc(CC#N)c2c1
3,172 to 174,CCCOc1c(OC)cc(C(CCC(C(=O)O)c2cc(OC)c(OC)c(OC)c2)C(=O)O)cc1SC (configuration not stated)
4,131 to 132,CCCOc1cc(CCCOc2c(CC(=O)O)cccc2OC)n(Cc2ccc(Cl)cc2)n1
5,145 to 146,CN(c1ccccc1)c1ncccc1NC(=O)c1ccccc1Cl
6,138 to 163,O=S(=O)(Nc1ccc(Cl)cc1C1=NN(c2ccccc2)CC1)C(F)(F)F
7,213 to 215,O=c1cc(CCO)c2ccccc2[nH]1
8,200,Cc1cc(C)cc(S(=O)(=O)n2c(CCCC(=O)O)cc3nc(Cl)ccc32)c1
9,118 to 119,COC(=O)C1=C[C@@H](OC(C)C)[C@H](NC(C)=O)[C@@H](CCO)C1
10,199 to 200,CC(C)(O)c1cnn2c(-c3ccc(F)c(-c4cccnc4)c3)cnc2n1
11,103 to 104,CCNC(=O)c1c([Si](C)(C)C)ccc(C(=O)OC)c1Cl
12,107 to 120,CC(CF)(CF)C(O)C(Oc1cccc(C(F)(F)F)c1)n1ccnc1 (configuration not stated)
13,169 to 170,CCCc1nc(I)c(CO)[nH]1
14,270 to 272,COc1cc(OC)c2c(=O)[nH]c(-c3cc(C)c(OCC(=O)O)c(C)c3)nc2c1
15,178 to 183,CCOC(=O)c1cn2c(n1)CN(C(=O)CCl)c1ccccc1-2
16,102 to 104,COCc1nc2c3c(ccn2c1C)[C@@H](O)[C@H](O)[C@@H](c1ccccc1)N3
17,101 to 103,CCCOc1c(C)cc(Cl)c2c(=O)c3ccccc3sc12
18,70 to 72,Cc1ccc(CNc2nc(Cl)nc(OCC(F)(F)F)n2)o1
19,110 to 112,O=C1c2ccccc2COc2cc(Br)ccc21
20,52 to 53,Cc1ccc(O)c2c1C(C)CC2=O (configuration not stated)
21,265 to 270,CC12CC(=O)C3C(CCC4CC(O)CCC43C)C1CCC2C(=O)O (configuration not stated)
22,111 to 112,CCOCc1nc2c(N)nc3ccccc3c2n1CCOCC#Cc1ccccc1
23,> 250,COc1ccc2c(N)c([N+](=O)[O-])sc2c1

row,melting point [°C],Compound
1,177 to 179,COc1cc(CSc2nc3cnccc3[nH]2)cc(OC)c1
2,153,COc1ccc(CCc2ccc(-c3ccc(OC(F)F)cc3)cc2)cc1
3,176 to 178,O=C(O)CCC(Cc1ccc(Cl)cc1)(C(=O)C=Cc1ccc(Cl)cc1)c1ccccc1 (configuration not stated)
4,161,COc1nc(C)nc(NC(=O)NS(=O)(=O)c2c(C)cccc2OCCF)n1
5,144 to 145,COc1ccc(C2=NN(c3ccccc3C)C(=O)[C@H]3CC=CC[C@@H]23)cc1OC (relative stereo)
6,184 to 186,Cc1nc2cc(NC(=O)Nc3cccc(C(F)(F)F)c3)ccc2o1
7,200 to 201,O=C(O)c1cccc(C(c2cc(F)ccc2F)S(=O)(=O)c2ccc(Cl)cc2)n1 (configuration not stated)
8,238 to 239,Cn1c(COc2ccc(CC3SC(=O)NC3=O)cc2)nc2ccc(Oc3ccc(NC(=O)c4cccc(Cl)c4)cc3)cc21 (configuration not stated)
9,> 220,CC(C)NC1=NS(=O)(=O)c2cc(Br)ccc2N1
10,161 to 163,Nc1nccc(C=Cc2ccccn2)c1[N+](=O)[O-]
11,128 to 129,CCCCNc1cc(-c2c(-c3cccc(C)c3)nc3cccnn23)ccn1
12,161 to 162,O=S(=O)(NCC(O)(Cn1cncn1)c1ccc(F)cc1F)c1ccc(C(F)(F)F)cc1 (configuration not stated)
13,190,COc1ccc(C2=CC(N3CCN(Cc4ccccc4)CC3)=NC23C=CC(=O)C=C3)cc1
14,189 to 192,Cc1ccc2cc(NC(=O)c3cccc(OCc4ccc(N)nc4)c3)ccc2n1
15,184 to 185,COc1ccc(C(=O)CCC(=O)O)cc1NC(C)=O
16,241 to 243,CCCCOC(=O)c1cc(=O)c2c3c(cc(Cl)c2o1)-c1ccc(S(=O)(=O)O)cc1C(C)(C)O3
17,103 to 107,CC(C)[C@H](NC(=O)N(C)Cc1csc(N)n1)C(=O)N[C@@H](Cc1ccccc1)[C@H](O)[C@H](O)[C@H](Cc1ccccc1)NC(=O)OC(C)(C)C
18,87 to 90,CC(C)(/C=C\F)C(=O)Nc1ccc(Br)cc1
19,144 to 150,Cn1c(C(F)(F)F)cc(=O)n(-c2c(F)cc(Cl)c3nc(N)oc23)c1=O
20,69.5 to 71,OC[C@@H](O)[C@@H]1OC[C@H](O)[C@H]1O (racemic)
21,233 to 235,CC(C)c1[nH]n(-c2c(Cl)cc(Cl)cc2Cl)c2nc(Cc3ccc(N=C=O)cc3)nc(=O)c1-2
22,159 to 160,COc1ccc(-n2cnc3ccc(-c4nnc(CCc5cccc(C(F)(F)F)c5)o4)cc32)cc1

row,Compound,melting point [°C]
1,CC(=O)N1N=C(c2ccc(N)c(C)c2)c2cc(Cl)ccc2C=C1C,209 to 211
2,COC(=O)[C@@H]1C[C@H](OC(=O)c2cc3ccccc3o2)C(=O)[C@H]2[C@@]1(C)CC[C@H]1C(=O)O[C@H](c3ccoc3)C[C@]21C,226 to 227
3,CC1CC2=CC(=O)CCC2C2C(O)CC3(C)C(=O)CCC3C12 (configuration not stated),200
4,CC1(C)OOC23CCCCC2CC(=O)OC3O1 (configuration not stated),106 to 107
5,CN(CC(N)=O)C1Cc2ccccc2C1,122 to 123
6,O=C(Nc1ccc(Br)cc1)N1CCN2CCC1CC2,228 to 231
